Where a SMILES comes first, the peptide text is derived from it.
Legend:
NF-κB = assay: EMSA of NF-κB activation in KBM-5 cells preincubated with peptides; format: cell-based; settings: various concentrations of peptides 1 h, 0.1 nM TNF 30 min (FIG. 3C)
Procedure: NF-κB activation was examined by electrophoretic mobility shift assays as described (Chaturvedi et al., 1994; Takada and Aggarwal). Briefly, nuclear extracts prepared from TNF-treated cells (1×10^6/ml) were incubated with ^32P-end-labeled 45-mer double-stranded NF-κB oligonucleotide (10 ug of protein with 16 fmol of DNA) from the human immunodeficiency virus long terminal repeat, 5′-[…] CAGGGAGGCGTGG-3′ (SEQ ID NO. 1, boldface indicates NF-κB binding sites) for 30 min at 37° C., and the DNA-protein complex formed was separated from free oligonucleotide on 6.6% native polyacrylamide gels. […]
To determine the effects of peptide containing Ser 276 (PTD-p65-P1), KBM-5 cells was preincubated with the peptides for 1 h, and then treated with 0.1 nM TNF for the indicated times. Nuclear extracts were prepared, and NF-κB activation was analyzed by electrophoretic mobility shift assays (EMSA). […]
Lipopolysaccharide, IL-1, okadaic acid, PMA, H2O2, and cigarette smoke condensate are potent activators of NF-κB, but the mechanisms differ. […] Cells were preincubated with 150 μM protein transduction domain-p65-P1 for 1 h, treated with 0.1 nM TNF, 1 μg/ml LPS, 100 ng/ml IL-1, 500 nM okadaic acid, 10 ng/ml PMA, 500 μM H2O2, or 1 μg/ml cigarette smoke condensate and then analyzed for NF-κB activation by EMSA.

IKK complex = target: T1, IKK complex (Homo sapiens, UniProt O14920+O15111); assay: Cell-free phosphorylation of p65 peptides by immunoprecipitated IKK complex; format: biochemical; settings: 10 μg of peptides as substrate (FIG. 5C)
T1 construct: Whole-cell extracts were prepared from TNF-treated cells and immunoprecipitated with antibody against IKK-α; endogenous in cells
Procedure: Whole-cell extracts were prepared from TNF-treated cells and immunoprecipitated with antibody against IKK-α. Thereafter immunocomplex kinase assay was performed in the presence of the peptides as a substrate.
To determine the total amounts of IKK-α and IKK-β in each sample, […] of the whole-cell protein was resolved on 7.5% SDS-PAGE, electrotransferred to a nitrocellulose membrane, and then blotted with either anti-IKK-α or anti-IKK-β antibodies. Cell-free phosphorylation of peptide by IKK was also determined using 10 μg of peptides as a substrate in the kinase reaction mixture described above, and then fractionated on 20% SDS-PAGE in 2×SDS electrophoresis buffer.
p65-P1 and p65-p6 have one or two serine residues respectively. Whether these serine residues can be phosphorylated by IKK was investigated. Whole-cell extracts from TNF-treated cells were immunoprecipitated with antibody against IKK and then immunocomplex kinase assay was performed using p65-peptides as substrates. After reaction, samples were fractionated on 20% SDS-PAGE with 2-fold electrophoresis buffer.

[1] = target: T2, NF-κB (p50-p65) binding to DNA (Homo sapiens, UniProt Q04206); assay: EMSA of NF-κB binding to DNA, nuclear extracts of TNF-treated cells incubated with peptides in vitro; format: biochemical; settings: nuclear extracts of TNF-treated KBM-5 cells incubated 30 min with peptides (FIG. 2A)
T2 construct: endogenous in cells; host or cells: KBM-5 cells, TNF-treated, nuclear extract
Procedure: Nuclear extracts were prepared from TNF-treated cells, incubated for 30 min with various concentrations of peptides, and then assayed for NF-κB activation by EMSA.
NF-κB activation was examined by electrophoretic mobility shift assays as described (Chaturvedi et al., 1994; Takada and Aggarwal). Briefly, nuclear extracts prepared from TNF-treated cells (1×10^6/ml) were incubated with ^32P-end-labeled 45-mer double-stranded NF-κB oligonucleotide (10 ug of protein with 16 fmol of DNA) from the human immunodeficiency virus long terminal repeat, 5′-[…] CAGGGAGGCGTGG-3′ (SEQ ID NO. 1, boldface indicates NF-κB binding sites) for 30 min at 37° C., and the DNA-protein complex formed was separated from free oligonucleotide on 6.6% native polyacrylamide gels. A double-stranded mutated oligonucleotide, 5′-[…]-3′(SEQ ID NO. 2) was used to examine the specificity of binding of NF-κB to the DNA. The specificity of binding was also examined by competition with unlabeled oligonucleotide.
The dose-dependent effect of protein transduction domain-p65-P1 and p65-P1 on p50-p65 binding to DNA was investigated. […] The protein transduction domain alone had no effect.

KBM-5 cells = assay: Cytotoxicity assay (MTT assay); format: cell-based; settings: 100 μM peptide; for effect on TNF-induced cytotoxicity (MTT): KBM-5 cells, TNF 72 h (FIG. 7A)
Procedure: Five thousand KBM-5 cells were seeded in triplicate in 96-well plates. Cells were pretreated with 100 μM PTD-p65-P1, and then incubated with the indicated concentrations of TNF for 72 hour. Thereafter, cell viability was analyzed by MTT assay.
Five thousand cells were seeded in triplicate in 96-well plates. Cells were pretreated with 100 μM protein transduction domain-p65-P1 and then incubated with indicated concentrations of TNF or doxorubicin or cisplatin for 72 hr. Thereafter, cell viability was analyzed by the MTT method.
The cytotoxic effects of […] were determined by the MTT uptake method as described (Manna et al., 2000a). Briefly, 5000 cells were incubated with synthetic peptides for 1 hour in triplicate in 96-well plates, and then treated with various concentration of TNF for 72 hours at 37° C. Thereafter, MTT solution was added to each well. After a 2-hr incubation at 37° C., extraction buffer (20% SDS, 50% dimethylformamide) was added, the cells were incubated overnight at 37° C., and then the OD was measured at 570 nm using a 96-well multiscanner (Dynex Technologies, MRX Revelation; Chantilly, Va.).

T2 sequence (Q04206 whole entry): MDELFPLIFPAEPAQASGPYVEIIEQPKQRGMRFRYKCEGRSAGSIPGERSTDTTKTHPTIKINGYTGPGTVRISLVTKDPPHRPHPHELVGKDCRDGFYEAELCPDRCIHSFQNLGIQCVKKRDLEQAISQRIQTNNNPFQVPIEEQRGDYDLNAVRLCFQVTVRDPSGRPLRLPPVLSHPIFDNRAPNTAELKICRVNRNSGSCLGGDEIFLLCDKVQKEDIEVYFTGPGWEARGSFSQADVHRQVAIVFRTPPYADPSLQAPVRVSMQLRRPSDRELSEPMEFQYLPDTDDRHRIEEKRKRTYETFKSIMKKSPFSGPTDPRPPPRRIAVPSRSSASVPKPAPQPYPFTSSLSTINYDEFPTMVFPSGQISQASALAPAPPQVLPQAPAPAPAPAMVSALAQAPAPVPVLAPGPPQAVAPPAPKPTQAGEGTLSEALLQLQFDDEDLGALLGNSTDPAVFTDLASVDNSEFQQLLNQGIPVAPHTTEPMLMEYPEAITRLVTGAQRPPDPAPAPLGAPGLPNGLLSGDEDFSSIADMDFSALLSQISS
T1 sequence (O15111 whole entry): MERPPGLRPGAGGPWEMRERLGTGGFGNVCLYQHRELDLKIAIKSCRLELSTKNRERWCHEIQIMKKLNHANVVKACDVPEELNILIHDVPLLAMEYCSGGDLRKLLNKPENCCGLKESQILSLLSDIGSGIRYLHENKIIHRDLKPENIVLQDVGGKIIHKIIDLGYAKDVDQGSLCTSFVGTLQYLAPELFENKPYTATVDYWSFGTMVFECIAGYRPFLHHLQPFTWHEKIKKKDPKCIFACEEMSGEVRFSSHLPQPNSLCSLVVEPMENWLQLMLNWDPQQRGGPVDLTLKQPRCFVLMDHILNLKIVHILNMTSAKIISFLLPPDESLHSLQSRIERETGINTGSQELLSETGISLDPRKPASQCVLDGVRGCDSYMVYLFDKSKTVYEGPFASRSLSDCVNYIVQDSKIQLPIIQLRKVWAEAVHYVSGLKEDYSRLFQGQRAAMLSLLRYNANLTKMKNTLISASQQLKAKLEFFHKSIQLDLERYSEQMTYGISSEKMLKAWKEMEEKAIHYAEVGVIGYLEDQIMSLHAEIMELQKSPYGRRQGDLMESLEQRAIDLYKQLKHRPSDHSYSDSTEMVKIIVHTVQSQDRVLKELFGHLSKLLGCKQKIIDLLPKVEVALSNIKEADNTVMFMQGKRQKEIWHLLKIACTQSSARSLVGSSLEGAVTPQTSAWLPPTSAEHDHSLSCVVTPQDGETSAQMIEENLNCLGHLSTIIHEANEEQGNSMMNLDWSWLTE
T1 sequence (O14920 whole entry): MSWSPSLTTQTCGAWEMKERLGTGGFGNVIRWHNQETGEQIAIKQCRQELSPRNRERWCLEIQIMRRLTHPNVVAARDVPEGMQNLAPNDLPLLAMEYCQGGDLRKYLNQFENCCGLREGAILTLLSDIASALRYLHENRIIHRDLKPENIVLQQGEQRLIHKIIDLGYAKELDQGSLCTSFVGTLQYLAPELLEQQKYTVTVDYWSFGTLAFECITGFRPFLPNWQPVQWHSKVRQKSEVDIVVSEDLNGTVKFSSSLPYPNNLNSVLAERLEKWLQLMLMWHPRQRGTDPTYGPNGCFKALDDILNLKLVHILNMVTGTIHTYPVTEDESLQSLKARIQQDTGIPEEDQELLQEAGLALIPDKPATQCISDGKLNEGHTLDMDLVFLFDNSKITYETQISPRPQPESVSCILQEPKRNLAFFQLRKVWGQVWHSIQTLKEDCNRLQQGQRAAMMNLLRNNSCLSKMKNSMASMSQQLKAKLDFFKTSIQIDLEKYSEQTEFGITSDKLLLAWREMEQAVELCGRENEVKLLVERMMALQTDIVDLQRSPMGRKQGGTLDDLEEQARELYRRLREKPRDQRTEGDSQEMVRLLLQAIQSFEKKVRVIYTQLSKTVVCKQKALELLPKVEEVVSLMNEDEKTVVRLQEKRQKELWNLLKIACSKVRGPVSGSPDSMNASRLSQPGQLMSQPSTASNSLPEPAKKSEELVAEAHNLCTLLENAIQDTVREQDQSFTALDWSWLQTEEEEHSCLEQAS
T1 sequence (Q9Y6K9 whole entry partner): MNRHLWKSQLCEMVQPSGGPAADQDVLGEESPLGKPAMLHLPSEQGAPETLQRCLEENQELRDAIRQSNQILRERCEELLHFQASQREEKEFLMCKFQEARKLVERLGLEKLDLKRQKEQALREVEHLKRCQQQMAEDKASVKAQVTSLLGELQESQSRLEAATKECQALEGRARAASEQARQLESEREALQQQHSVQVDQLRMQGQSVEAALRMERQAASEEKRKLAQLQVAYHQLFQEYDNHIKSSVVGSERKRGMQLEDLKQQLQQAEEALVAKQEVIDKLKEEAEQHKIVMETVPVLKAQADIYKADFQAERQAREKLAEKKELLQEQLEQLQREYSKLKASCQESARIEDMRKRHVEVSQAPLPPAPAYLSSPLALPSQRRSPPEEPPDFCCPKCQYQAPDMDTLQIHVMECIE

| Molecule | inhibition of NF-κB binding to the DNA in vitro [1] | effect on TNF-induced cytotoxicity (MTT) (KBM-5 cells) | further results |
| --- | --- | --- | --- |
| p65-P6: SEQ ID NO. 11; p65 peptide containing Ser 529 and 536, amino acid 525-537 of the p65 subunit (NGLLSGDEDFSS; CHAIN p65-P6, peptide derived from the p65 subunit of NF-kB) | – | – | effect on TNF-induced NF-κB activation (EMSA, dose response) (NF-κB): Neither a protein transduction domain nor p65-P6 alone had any effect; phosphorylation of the peptide by IKK complex (IKK complex): can phosphorylate |
| PTD-p65-P6: SEQ ID NO. 10; antennapedia protein transduction domain linked to amino acid 525-537 of the p65 subunit (DRQIKIWFQNNRRMKWKKNGLLSGDEDFSS; CHAIN PTD-p65-P6, cell permeable NF-kb inhibitor) | – | – | effect on TNF-induced NF-κB activation (EMSA, dose response) (NF-κB): inhibited TNF-induced NF-κB activation in a dose dependent manner |
| CC[C@H](C)[C@H](NC(=O)[C@H](CCCCN)NC(=O)[C@@H](NC(=O)[C@H](CCC(N)=O)NC(=O)[C@H](CCCNC(=N)N)NC(=O)[C@@H](N)CC(=O)O)[C@@H](C)CC)C(=O)N[C@@H](Cc1c[nH]c2ccccc12)C(=O)N[C@@H](Cc1ccccc1)C(=O)N[C@@H](CCC(N)=O)C(=O)N[C@@H](CC(N)=O)C(=O)N[C@@H](CC(N)=O)C(=O)N[C@@H](CCCNC(=N)N)C(=O)N[C@@H](CCCNC(=N)N)C(=O)N[C@@H](CCSC)C(=O)N[C@@H](CCCCN)C(=O)N[C@@H](Cc1c[nH]c2ccccc12)C(=O)N[C@@H](CCCCN)C(=O)N[C@@H](CCCCN)C(=O)N[C@@H](CCC(N)=O)C(=O)N[C@@H](CC(C)C)C(=O)N[C@@H](CCCNC(=N)N)C(=O)N[C@@H](CCCNC(=N)N)C(=O)N1CCC[C@H]1C(=O)N[C@@H](CO)C(=O)N[C@@H](CC(=O)O)C(=O)N[C@@H](CCCNC(=N)N)C(=O)N[C@@H](CCC(=O)O)C(=O)N[C@@H](CC(C)C)C(=O)N[C@@H](CO)C(=O)N[C@@H](CCC(=O)O)C(=O)O [PTD-p65-P1] (H-DRQIKIWFQNNRRMKWKKQLRRPSDRELSE-OH) | – | enhanced TNF-induced cytotoxicity | effect on cisplatin-induced cytotoxicity (MTT) (KBM-5 cells; cisplatin 72 hr (FIG. 7D bottom panel)): potentiated; effect on doxorubicin-induced cytotoxicity (MTT) (KBM-5 cells; doxorubicin 72 hr (FIG. 7D top panel)): potentiated |
| CC[C@H](C)[C@H](NC(=O)[C@H](CCCCN)NC(=O)[C@@H](NC(=O)[C@H](CCC(N)=O)NC(=O)[C@H](CCCNC(=N)N)NC(=O)[C@@H](N)CC(=O)O)[C@@H](C)CC)C(=O)N[C@@H](Cc1c[nH]c2ccccc12)C(=O)N[C@@H](Cc1ccccc1)C(=O)N[C@@H](CCC(N)=O)C(=O)N[C@@H](CC(N)=O)C(=O)N[C@@H](CC(N)=O)C(=O)N[C@@H](CCCNC(=N)N)C(=O)N[C@@H](CCCNC(=N)N)C(=O)N[C@@H](CCSC)C(=O)N[C@@H](CCCCN)C(=O)N[C@@H](Cc1c[nH]c2ccccc12)C(=O)N[C@@H](CCCCN)C(=O)N[C@@H](CCCCN)C(=O)O [protein transduction domain, reference compound] (H-DRQIKIWFQNNRRMKWKK-OH) | – | had no effect | – |
| CC(C)C[C@H](NC(=O)[C@H](CCC(=O)O)NC(=O)[C@H](CCCNC(=N)N)NC(=O)[C@H](CC(=O)O)NC(=O)[C@H](CO)NC(=O)[C@@H]1CCCN1C(=O)[C@H](CCCNC(=N)N)NC(=O)[C@H](CCCNC(=N)N)NC(=O)[C@H](CC(C)C)NC(=O)[C@@H](N)CCC(N)=O)C(=O)N[C@@H](CO)C(=O)N[C@@H](CCC(=O)O)C(=O)O [p65-P1, QLRRPSDRELSE] (H-QLRRPSDRELSE-OH) | – | had no effect | – |
| p65-p8: Peptide in which Ser 536 was mutated (NGLLSGDEDFSA; CHAIN p65-P8, mutated peptide derived from the p65 subunit of NF-kB) | did not inhibit | – | – |

Now from value to molecule, other results behind:

| inhibition of NF-κB binding to the DNA in vitro [1] | Molecule | effect on TNF-induced cytotoxicity (MTT) (KBM-5 cells) | further results |
| --- | --- | --- | --- |
| did not inhibit | p65-P7: Peptide in which Ser 529 was mutated (NGLLAGDEDFSS; CHAIN p65-P7, mutated peptide derived from the p65 subunit of NF-kB) | – | – |
| inactive | p65-P4: Peptide in which five amino acid residues were deleted from the C-terminus (QLRRPSD; CHAIN p65-P4, mutated peptide derived from the p65 subunit of NF-kB) | – | – |
| inactive | p65-P5: Peptide in which three amino acid residues were deleted from the N-terminus (RPSDRELSE; CHAIN p65-P5, mutated peptide derived from the p65 subunit of NF-kB) | – | – |
| did not inhibit | p65-P2: Peptide in which Ser 276 was mutated (QLRRPADRELSE; CHAIN p65-P2, mutated peptide derived from the p65 subunit of NF-kB) | – | – |

Reference: patent publication US7368430B2, “Selective inhibitors of nuclear factor-κB activation and uses thereof” (Research Development Foundation, priority 2003, dated 2008)
